These results are taken from PubChem BioAssay (NCI).

Among the test systems are CAKI-1 renal; COLO 205 colon; EKVX NSCLC; HCC-2998 colon; HOP-62 NSCLC; HOP-92 NSCLC; LOX IMVI melanoma; NCI-H23 lung; NCI-H460 lung; SF-268 CNS; SF-539 CNS; SK-OV-3 ovarian; TK-10 renal; UO-31 renal.
Test in all cases: inhibition of tumour cell growth, NCI panel, 48 h

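Five compound concentrations were applied to cells in 96-well plates for 48 hours; endpoints were derived by simple linear interpolation of the resulting dose-response curve. TGI denotes the concentration required for complete inhibition of growth.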

With `CCCCCN(CCCCC)C(=O)[C@H](CCC(=O)O)NC(=O)c1cc2ccccc2[nH]1`, the TGI is above 100 µM in the test on CAKI-1 renal; above 100 µM in the test with COLO 205 colon; above 100 µM in the test on EKVX NSCLC; above 100 µM in the test on HCC-2998 colon; above 100 µM with HOP-62 NSCLC; 99.4 µM with HOP-92 NSCLC. Moreover, the TGI was above 100 µM in the test on LOX IMVI melanoma; 85.8 µM in the test with NCI-H23 lung; above 100 µM with NCI-H460 lung; above 100 µM in the test with SF-268 CNS; above 100 µM in the test on SF-539 CNS; above 100 µM in the test with SK-OV-3 ovarian. The TGI in the test on TK-10 renal and with UO-31 renal was above 100 µM throughout.

`O=C1NC2C3CC(OCc4ccccc4)(OCc4ccccc4)C2OC3O1` (configuration not stated): the TGI in the test with CAKI-1 renal, in the test with COLO 205 colon, in the test on HCC-2998 colon, in the test with HOP-62 NSCLC, in the test on HOP-92 NSCLC and with LOX IMVI melanoma was above 50 µM each time. The TGI with NCI-H23 lung, with SF-268 CNS, in the test on SF-539 CNS, in the test with SK-OV-3 ovarian and with UO-31 renal was above 50 µM throughout.

Take `CCOC(=O)C(=O)Nc1c(C)cccc1C(C)(C)C`: the TGI in the test on CAKI-1 renal, with COLO 205 colon, in the test with EKVX NSCLC, in the test on HCC-2998 colon, in the test on HOP-62 NSCLC and in the test on HOP-92 NSCLC was above 100 µM in each case. Further, the TGI with LOX IMVI melanoma, in the test on NCI-H23 lung, with NCI-H460 lung, with SF-268 CNS, in the test on SF-539 CNS and with SK-OV-3 ovarian was above 100 µM each time. Also, the TGI in the test with TK-10 renal and in the test on UO-31 renal was above 100 µM throughout.

Regarding `C=CC(=O)Nc1ccccc1CC(c1c[nH]c2ccccc12)c1c[nH]c2ccccc12`, the TGI with CAKI-1 renal came to 37.7 µM; in the test with COLO 205 colon it was 30.9 µM; in the test on EKVX NSCLC, 51 µM; in the test with HCC-2998 colon it was 33.4 µM; in the test on HOP-62 NSCLC, 35.1 µM; with LOX IMVI melanoma it was 36.3 µM. Moreover, the TGI in the test on NCI-H23 lung is 38.2 µM; in the test with SF-268 CNS it was 43.1 µM; in the test on SF-539 CNS, 36.6 µM; with SK-OV-3 ovarian, 45.7 µM; in the test with TK-10 renal, 59.1 µM; with UO-31 renal, 31.7 µM.

As to `Cc1cc(Cl)ccc1N=C1NC(=O)C(CC(=O)Nc2cccc(C)c2C)S1` (configuration not stated), the TGI is 54.5 µM in the test with CAKI-1 renal; 46.2 µM in the test with COLO 205 colon; above 100 µM with EKVX NSCLC; 65.1 µM with HCC-2998 colon; 62.6 µM with HOP-62 NSCLC; 26.5 µM in the test with HOP-92 NSCLC. The TGI is 80.6 µM in the test with LOX IMVI melanoma; 52.1 µM with NCI-H23 lung; above 100 µM in the test on NCI-H460 lung; above 100 µM in the test with SF-268 CNS; 43.4 µM in the test with SF-539 CNS; 55.9 µM in the test with SK-OV-3 ovarian. Further, the TGI with TK-10 renal was above 100 µM; in the test on UO-31 renal it was 51.5 µM.

With `Cc1ccc(C2[C@H]3C(=O)N(c4ccc(Cc5ccc(N6C(=O)[C@@H]7ON(c8ccccc8)C(c8ccc(C)cc8)[C@@H]7C6=O)cc5)cc4)C(=O)[C@H]3ON2c2ccccc2)cc1` (some centres not stated), the TGI with CAKI-1 renal, with COLO 205 colon, with HCC-2998 colon, in the test on HOP-62 NSCLC, in the test with HOP-92 NSCLC and with LOX IMVI melanoma was above 100 µM throughout. Moreover, the TGI in the test on NCI-H23 lung, with NCI-H460 lung, in the test with SF-268 CNS, in the test with SF-539 CNS, in the test on SK-OV-3 ovarian and with UO-31 renal was above 100 µM each time.

As for `N#CC(C(=N/O)/C(=N\O)C(C#N)c1ccccc1)c1ccccc1` (configuration not stated), the TGI in the test with COLO 205 colon, with EKVX NSCLC, with HCC-2998 colon, with HOP-62 NSCLC, in the test with HOP-92 NSCLC and in the test with LOX IMVI melanoma was above 100 µM in each case. The TGI in the test on NCI-H23 lung, in the test on NCI-H460 lung, in the test on SF-268 CNS, in the test on SF-539 CNS, in the test on SK-OV-3 ovarian and in the test on TK-10 renal was above 100 µM in each case. The TGI in the test with UO-31 renal was above 100 µM.

In the case of `Cc1ccc(C)c(NC(=O)C(=O)C2C(=O)N(c3ccccc3)N=C2N)c1` (configuration not stated), the TGI in the test with CAKI-1 renal, in the test on EKVX NSCLC, in the test on HCC-2998 colon, in the test on HOP-62 NSCLC, in the test on HOP-92 NSCLC and in the test on LOX IMVI melanoma was above 100 µM throughout. Further, the TGI in the test with NCI-H23 lung, with NCI-H460 lung, with SF-268 CNS, with SF-539 CNS, with TK-10 renal and in the test on UO-31 renal was above 100 µM throughout.
